This note sets out measurements from US11963961B2, “Combination therapy comprising an ACC inhibitor” (Gilead Sciences, Inc., priority 2017, dated 2024).

Series [1] relates to fast food diet (FFD) male C57B1/6 mouse. The series is described as follows: 14-day pharmacology study of Compound 2 and fenofibrate in chow, fast food diet model of fatty liver. Type of series: in vivo. To be noted: Compound 2 10 mg/kg QD PO, two weeks of dosing. How it is done: Once Daily Compound 2 and Fenofibrate Administered in Chow: 14-Day Pharmacology Study Using the Fast Food Diet Model of Fatty Liver in the Male C57B1/6 Mouse
Purpose: The purpose of this study was to assess the effect of Compound 2 on plasma and liver TG and molecular biology of liver after 10 to 14 days of Compound 2 administered orally (10 mg/kg QD), or fenofibrate (0.1% administration in chow), or the combination in a mice fed a diet high in fat, cholesterol, and fructose (the fast-food diet, FFD). Mice enrolled in this study were fed a fast food diet for approximately 9 months prior to study start. Primary endpoints were plasma triglycerides, liver triglycerides, liver cholesterol, and hepatic gene expression of liver X receptorα (LXRα), and sterol response element binding protein-1c (SREBP1c) target genes by qPCR.

The test system of series [2] is fast food diet (FFD) male C57BL/6 mouse. The series is described as follows: 15-day once daily oral Compound 2 and fenofibrate, fast food diet model of fatty liver. Type of series: in vivo. To be noted: 15 days. How it is done: Once Daily Oral Administration of Compound 2 and Fenofibrate: 15-Day Pharmacology Study Using the Fast Food Diet Model of Fatty Liver in the Male C57BL/6 Mouse
(§1) Purpose: The purpose of this study was to assess the effect of Compound 2 on plasma and liver triglycerides (TG) and molecular biology of liver after 15 days of oral administration (“PO”) of Compound 2 (5 mg/kg QD), fenofibrate (25 mg/kg and 50 mg/kg QD), or the combination (Compound 2 (5 mg/kg, QD)+fenofibrate (50 mg/kg, QD)) in mice fed a diet high in fat, cholesterol, and fructose (the fast-food diet, FFD (Research Diet D12079B)). Mice enrolled in this study were fed a FFD for approximately 9 months prior to study start. Primary endpoints were plasma TG, liver TG, liver ketone bodies, plasma liver enzymes, hepatic oxidative stress and hepatic gene expression of liver X receptorα (LXRα) and PPARα targets, and profibrotic markers by qPCR.

Series [3] has as its system subjects with steatosis and F1-F3 fibrosis / NASH. The settings on record: one subject on Compound 1 20 mg given 145 mg fenofibrate after grade 3 hypertriglyceridemia at week 1. The method, then: Ten subjects with steatosis (MRI-PDFF≥10%) and F1-F3 fibrosis (MRE≥2.88 kPa but non-cirrhotic based on FibroText <0.75, historical imaging and liver biopsy) were treated 20 mg Compound 1 for 12 weeks.
Four of the ten subjects were on fish oil or fenofibrate at baseline and continued the concomitant medication for the duration of the study. Throughout the study subjects were monitored for safety (adverse events, laboratory abnormalities), liver biochemistry, serum markers of fibrosis (ELF and its components TIMP-1, hyaluronic acid, PIII-NP) and cell death (CK18 M30 and M65), liver stiffness (MRE) and fat (MRI-PDFF) and the effect on de novo lipogensis was assessed using heavy water labeling.
The four subjects were analyzed in conjunction with eight subjects from the study described in Example 1. These twelve subjects were on fish oil or fibrates for at least six weeks of the study and included those who were on fish oil or fibrates at baseline or who had graded hypertriglyceridemia and were given fish oil or fibrates during the study.

For series [4], the system named is pro-fibrotic genes colla1 and timp1. Put plainly: Hepatic mRNA expression by qPCR, 15-day FFD mouse study. Type of series: in vivo. The settings on record: Compound 2 5 mg/kg; fenofibrate 50 mg/kg; QD PO, 15 days. The method, then:
as §1
(In qPCR the cycle at which signal appears reflects the starting amount.)

`COc1ccccc1[C@H](Cn1c(=O)n(C(C)(C)C(=O)O)c(=O)c2c(C)c(-c3ncco3)sc21)O[C@H]1CC[C@@H](O)CC1` [Compound 2, 2-[1-[(2R)-2-[(4-hydroxycyclohexyl)oxy]-2-(2-methoxyphenyl)ethyl]-5-methyl-6-(1,3-oxazol-2-yl)-2,4-dioxo-1H,2H,3H,4H-thieno[2,3-d]pyrimidin-3-yl]-2-methylpropanoic acid]: the “Plasma triglycerides, increase relative to vehicle-treated animals” value in series [1] was 15%. The “Plasma TG, increase relative to vehicle-treated animals” value in series [2] (Compound 2 5 mg/kg QD PO, 2 h post dose, ad lib fed) is on record as 29%.
Turning to `CC(C)OC(=O)C(C)(C)Oc1ccc(C(=O)c2ccc(Cl)cc2)cc1` [fenofibrate, Fenofibrate, reference compound], the “All monitored TG related measurements (total TG, APOB48, VLDL-P, APOC3)” value in series [3] is “improved to less than baseline”. Further, the “Effect on the above-mentioned parameters (plasma TG, PPARα and LXRα target genes, ALT/AST, liver TG, βOHB, malondialdehyde)” value in series [2] (fenofibrate alone, both 25 and 50 mg/kg QD PO) is “modest-to-no effect”. Also, the “Hepatic expression of pro-fibrotic genes” value in series [4] is reported as “reduced”.
